Patent US4618677A, “Substituted phenylalkyl-(piperazinyl or homopiperazinyl)alkyl-thiols and -thiocarbamates useful for the treatment of immunological, inflammatory, and allergic disorders” (Boehringer Ingelheim Limited, priority 1984, dated 1986)
Several values for one entry are separate records, joined by “and”; a condition that tells them apart may be missing. Identical values can stand only once. Counter-ions that a name gives are not always drawn. Like-named read-outs stand apart in the source and are kept apart here.

How the values were obtained:
[1] = system: human leukocytes (basophils); experiment: Inhibition of IgE-mediated histamine release from human leukocytes (basophils), Procedure A; type: cell-based; conditions: Leukocyte, 1 h, read-out: In Vitro Inhibition of Histamine Release IC50 (μM) Procedure A
Experimental: A. Procedure for Determining Inhibition of Histamine Release from Human Leukocytes (Basophils)
Separation of Leukocytes: A modification of the method of L. Lichtenstein and A. Osler, J. Exp. Med. 120, 507 (1964) is used. Heparinized human blood (80-100 ml) is mixed with 20 ml of saline (0.2%) containing 0.6 gm of dextrose and 1.2 gm of dextran in propylene centrifuge tubes. The mixture is kept at ambient temperature for 60-90 minutes to allow the separation of erythrocytes from the platelet-leukocyte-rich supernate. The supernate is removed and centrifuged for 8 minutes at 110 ×g in cold. The leukocyte pellet is washed twice with Tris buffer and finally suspended in 150-180 ml Tris-ACM buffer at 1-2 ×10^6 cells/ml.
Reaction Mixture: The reaction is carried out in 12×75 mm plastic tubes at a total volume of 1.23 ml. The reaction medium includes 0.05 ml rabbit anti-human IgE (the antigen), 0.2 ml of the test compound in water at concentrations ranging from 10-100 μM, and 1.0 ml of the leukocyte suspension. The reaction mixture is incubated in a 37° C. shaking water bath for 60 minutes. Upon completion of the reaction, the tubes are centrifuged and the supernatants collected. The protein is removed from the supernatants by precipitation with 0.2 ml of 8% perchloric acid.
Histamine Assay: Histamine release is measured by the automated fluorometric method of W. Siraganian and W. Hook in Chapter 102 of the Manual of Clinical Immunology, 2nd Edition, edited by R. Rose and H. Friedman, published by the American Society for Microbiology, Washington, D.C., 1980. Percent inhibition is calculated as follows: [formula]
The concentration which causes a 50 percent inhibition (IC50) of histamine release is interpolated from a plot of percent inhibition versus logarithm of drug concentration.

[2] = system: rat peritoneal mast cells; experiment: Inhibition of histamine release from rat peritoneal mast cells, Procedure B; type: cell-based; conditions: Mast cell, 1 h, read-out: In Vitro Inhibition of Histamine Release IC50 (μM) Procedure B
Experimental: B. Procedure for Determining Inhibition of Histamine Release from Rat Peritoneal Mast Cells
Harvest of Peritoneal Mast Cells: After the rats are sacrificed with ether, 20 ml of Minimum Essential Medium (MEM) containing 20 units/ml heparin is injected into the peritoneum. The abdomen is massaged for one minute and the lavage fluid collected. The peritoneal cells are centrifuged at 1800 rpm for 8 minutes in cold. After two washes with Tris A buffer, the cells are resuspended in Tris ACM buffer at 2-4×10^6 cells/ml.
Reaction mixture: The reaction is carried out in 12×75 mm plastic tubes at a total volume of 1.25 ml. The reaction mixture includes 0.5 ml (10-1000 μg) sheep anti-rat IgE or ovalbumin, 0.2 ml of the test compound in water at concentrations ranging from 10-1000 μM, 0.5 ml phosphatidylserine solution (20-60 μg to each tube), and 0.5 ml of cell suspension.
The concentration which causes a 50% inhibition (IC50) of histamine release is computed as in Part A.

[3] = system: guinea pig basophils; experiment: Inhibition of histamine release from guinea pig basophils, Procedure C; type: cell-based; conditions: Cavia porcellus, 1 h, read-out: In Vitro Inhibition of Histamine Release IC50 (μM) Procedure C
Experimental: C. Procedure for Determining Inhibition of Histamine Release from Guinea Pig Basophils
1. In Vivo Sensitization: Male Hartley guinea pigs (200-300 gm) are immunized on day 0 with two 0.05 ml intradermal injections of 200 μg ovalbumin. Sensitized basophils are available between days 13-25 post-sensitization. This mode of sensitization favors IgE response.
2. Separation of Leukocytes: The method of Lett-Brown et al., Int. Arch. Allergy, Appl. Immun. 64, 241 (1981) is used. Animals are anesthetized with ether and are bled via cardiac puncture, with plastic syringes containing sufficient EDTA to provide a final concentration of 10 mM.
One part of 3% gelatin in saline at 37° C. is mixed with 2 parts of blood in a 16×150 mm tube. The cells are allowed to sediment at a 30° angle for 45 minutes in a 37° C. water bath. The leukocyte-rich plasma is collected and centrifuged at 150×g for 30 minutes at room temperature. The pelleted cells are washed in Hepes-buffered saline (HG) containing 4 mM EDTA and resuspended in Hepes-buffered saline containing […] and Ca^++ (HGCM) at 4-5×10^6 cells/ml.
3. Reaction Mixture: The reaction is carried out in 12×75 mm plastic tubes and a total volume of 1.2 ml which includes 0.5 ml of antigen, 0.2 ml of drug solution at concentrations ranging from 10-1000 μM and 0.5 ml of prewashed cell suspension. The reaction mixture is incubated in a 37° C. shaking water bath for 60 minutes. Upon completion of the reaction, the tubes are centrifuged and the supernatants collected. The protein is removed from the supernatants by precipitation with 0.2 ml of 8% perchloric acid.
4. Histamine Assay: Histamine release is measured by the automated fluorometric method of Siraganian, supra. The concentration which causes a 50 percent inhibition of histamine release is computed as in Part A.

[4] = target: T1, histamine (H1) receptor (Cavia porcellus, UniProt P31389); experiment: Antagonism of histamine-induced contraction of isolated guinea pig ileum; type: tissue-based; conditions: histamine final concentration 0.2 μg/ml, 50% reduction of contractile response, read-out: Inhibition IC50 (μM) of histamine-induced contraction
T1 construct: contraction of isolated guinea pig ileum; from tissue; host or cells: isolated guinea pig ileum
Description: Certain compounds of formula I inhibit in vitro the histamine-induced contraction of isolated guinea pig ileum and are useful in warm-blooded animals for antagonizing the action of histamine at the histamine (H1) receptor. Accordingly, these compounds can be employed in a conventional manner as antihistamine agents for the treatment of allergic disorders, for example allergic rhinitis, vasomotor rhinitis, allergic conjunctivitis, hay fever, urticaria, and food allergies.
The antagonism of the effects of histamine on the contraction of isolated guinea pig ileum by the compounds of formula I can be determined by the procedure of G. Possanza, A. Bauen, and P. Stewart, Int. Arch. Allergy Appl. Immunol., 49, 289 (1975). The degree of inhibition is determined as the difference between the contraction caused by histamine (final concentration 0.2 μg/ml) alone and that seen in the presence of both histamine and the test compound. The inhibitory activity of the test compound is expressed as that concentration of the compound which causes a 50% reduction of the contractile response (IC50).

[5] = from human basophils, rabbit anti-human IgE as antigen, 60 min at 37° C., > = no response detected at highest dose indicated
[6] = from rat peritoneal mast cells, sheep anti-rat IgE or ovalbumin, 60 min at 37° C.
[7] = from guinea pig basophils (ovalbumin-sensitized), 60 min at 37° C., > = no response detected at highest dose indicated

T1 sequence (P31389 whole entry): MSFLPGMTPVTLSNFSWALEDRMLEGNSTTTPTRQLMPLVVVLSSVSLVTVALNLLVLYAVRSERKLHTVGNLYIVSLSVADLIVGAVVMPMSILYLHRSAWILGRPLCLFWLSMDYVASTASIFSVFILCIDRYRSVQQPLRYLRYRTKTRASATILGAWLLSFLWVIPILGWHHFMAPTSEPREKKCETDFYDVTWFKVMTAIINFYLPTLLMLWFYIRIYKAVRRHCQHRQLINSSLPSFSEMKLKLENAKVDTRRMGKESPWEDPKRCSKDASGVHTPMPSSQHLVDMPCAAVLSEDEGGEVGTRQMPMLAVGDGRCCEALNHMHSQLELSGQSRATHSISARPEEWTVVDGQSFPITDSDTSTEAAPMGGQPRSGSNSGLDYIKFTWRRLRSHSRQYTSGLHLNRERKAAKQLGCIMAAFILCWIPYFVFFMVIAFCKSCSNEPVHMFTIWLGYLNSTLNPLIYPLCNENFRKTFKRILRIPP

SMILES | IC50 [1, 5] | IC50 [2, 6] | IC50 [4] | IC50 [3, 7] | IC50 ([1]; Homo sapiens) | IC50 ([2]; Rattus norvegicus) | IC50 [3]
O=C(NC1CCCCC1)SCCCN1CCN(Cc2ccc(Cl)cc2)CC1 [Example 6, N-Cyclohexyl-S-{3-[4-(4-chlorobenzyl)piperazin-1-yl]propyl}thiocarbamate dihydrochloride] | 5 µM | 3 µM | 0.06 µM | 20 µM |  |  | 
O=C(Nc1ccccc1)SCCCN1CCN(Cc2ccc(Cl)cc2)CC1 [Example 7, N-Phenyl-S-{3-[4-(4-chlorobenzyl)piperazin-1-yl]propyl}thiocarbamate dihydrochloride] | 2.6 µM | 3 µM |  | 13 µM |  |  | 
SCCCN1CCN(CCc2ccc(Cl)cc2)CC1 [Example 25, 3-[4-(4-Chlorophenethyl)piperazin-1-yl]propanethiol dihydrochloride] | 5 µM | 4 µM |  | 5 µM |  |  | 
SCCN1CCN(Cc2ccc(Cl)cc2)CC1 [Example 36, 2-[4-(4-Chlorobenzyl)piperazin-1-yl]ethanethiol dihydrochloride] |  |  |  |  | 3 µM | 5 µM | > 100 µM

More lines, main results first:

IC50 [1, 5] | IC50 [2, 6] | IC50 [4] | SMILES | IC50 [3, 7] | IC50 ([1]; Homo sapiens) | IC50 ([2]; Rattus norvegicus) | IC50 [3]
5 µM | 7 µM | 0.12 µM and 0.09 µM | COc1ccc(NC(=O)SCCCN2CCN(CCc3ccc(Cl)cc3)CC2)cc1 [Example 28, N-(4-Methoxyphenyl)-S-{3-[4-(4-chlorophenethyl)piperazin-1-yl]propyl}thiocarbamate dihydrochloride] | 40 µM |  |  | 
5 µM | 2 µM |  | CCCCc1ccc(NC(=O)SCCCN2CCN(CCCc3ccc(Cl)cc3)CC2)cc1 [Example 33, N-(4-n-Butylphenyl)-S-{3-[4-[3-(4-chlorophenyl)propyl]piperazin-1-yl]propyl}thiocarbamate dihydrochloride] | 14 µM |  |  | 
